Twelve molecules from ChEMBL document CHEMBL5291721, “A preclinical secondary pharmacology resource illuminates target-adverse drug reaction associations of marketed drugs” (Nat Commun, 2023) can be followed below.

For experiment [1], the target named is T1, Thromboxane A2 receptor (Homo sapiens, UniProt P21731).
T1 sequence (P21731 whole entry): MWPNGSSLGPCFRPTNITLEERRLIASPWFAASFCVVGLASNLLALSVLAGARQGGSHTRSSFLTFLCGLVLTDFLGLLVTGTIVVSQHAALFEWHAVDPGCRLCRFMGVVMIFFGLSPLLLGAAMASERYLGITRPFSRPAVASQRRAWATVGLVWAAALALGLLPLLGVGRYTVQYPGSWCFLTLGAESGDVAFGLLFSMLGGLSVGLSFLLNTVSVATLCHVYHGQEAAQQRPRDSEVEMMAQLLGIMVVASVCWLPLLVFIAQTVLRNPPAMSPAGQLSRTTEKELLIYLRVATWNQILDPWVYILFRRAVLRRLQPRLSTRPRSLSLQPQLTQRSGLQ

For experiment [2], the target named is T2, Neuropeptide Y receptor type 1 (Homo sapiens, UniProt P25929).
T2 sequence (P25929 whole entry): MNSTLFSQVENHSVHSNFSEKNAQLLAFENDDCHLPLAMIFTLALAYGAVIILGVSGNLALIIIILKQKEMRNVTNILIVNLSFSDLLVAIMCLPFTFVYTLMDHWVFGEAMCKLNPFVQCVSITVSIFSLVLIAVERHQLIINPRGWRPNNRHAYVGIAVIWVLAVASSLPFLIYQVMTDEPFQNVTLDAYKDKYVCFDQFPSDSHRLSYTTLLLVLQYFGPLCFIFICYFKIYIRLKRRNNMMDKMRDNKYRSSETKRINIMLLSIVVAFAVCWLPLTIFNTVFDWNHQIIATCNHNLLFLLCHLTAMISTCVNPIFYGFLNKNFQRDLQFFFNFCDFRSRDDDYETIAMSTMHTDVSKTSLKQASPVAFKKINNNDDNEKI
The conditions noted are these: read-out: AC50.

Experiment [3] deals with T3, 5-hydroxytryptamine receptor 2C (Homo sapiens, UniProt P28335).
T3 sequence (P28335 whole entry): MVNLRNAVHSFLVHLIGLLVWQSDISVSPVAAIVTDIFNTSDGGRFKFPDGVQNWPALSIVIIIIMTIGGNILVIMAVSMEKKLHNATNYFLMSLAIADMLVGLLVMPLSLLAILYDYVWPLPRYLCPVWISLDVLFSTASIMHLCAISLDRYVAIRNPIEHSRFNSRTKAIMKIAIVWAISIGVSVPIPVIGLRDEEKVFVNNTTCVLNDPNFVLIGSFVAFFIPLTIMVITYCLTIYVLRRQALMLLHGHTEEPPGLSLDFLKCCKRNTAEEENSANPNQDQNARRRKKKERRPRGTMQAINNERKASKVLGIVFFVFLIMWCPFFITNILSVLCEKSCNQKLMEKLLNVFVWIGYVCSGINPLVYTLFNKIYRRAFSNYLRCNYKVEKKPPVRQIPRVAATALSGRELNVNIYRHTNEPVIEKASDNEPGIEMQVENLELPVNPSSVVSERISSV

Experiment [4] deals with Kappa-type opioid receptor (Homo sapiens, UniProt P41145).
Sequence of Kappa-type opioid receptor (P41145 whole entry): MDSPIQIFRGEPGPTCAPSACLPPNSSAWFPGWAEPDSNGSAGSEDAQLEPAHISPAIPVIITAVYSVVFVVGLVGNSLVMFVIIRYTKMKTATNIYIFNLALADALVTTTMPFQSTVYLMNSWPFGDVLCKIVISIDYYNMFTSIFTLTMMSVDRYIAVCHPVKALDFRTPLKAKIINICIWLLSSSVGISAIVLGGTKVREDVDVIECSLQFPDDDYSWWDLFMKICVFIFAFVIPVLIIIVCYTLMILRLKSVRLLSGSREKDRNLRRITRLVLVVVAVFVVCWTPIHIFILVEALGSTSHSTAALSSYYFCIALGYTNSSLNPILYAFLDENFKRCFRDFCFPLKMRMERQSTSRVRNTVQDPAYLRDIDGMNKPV
Experiment [5] addresses T4, Amine oxidase [flavin-containing] A (Homo sapiens, UniProt P21397).
T4 sequence (P21397 whole entry): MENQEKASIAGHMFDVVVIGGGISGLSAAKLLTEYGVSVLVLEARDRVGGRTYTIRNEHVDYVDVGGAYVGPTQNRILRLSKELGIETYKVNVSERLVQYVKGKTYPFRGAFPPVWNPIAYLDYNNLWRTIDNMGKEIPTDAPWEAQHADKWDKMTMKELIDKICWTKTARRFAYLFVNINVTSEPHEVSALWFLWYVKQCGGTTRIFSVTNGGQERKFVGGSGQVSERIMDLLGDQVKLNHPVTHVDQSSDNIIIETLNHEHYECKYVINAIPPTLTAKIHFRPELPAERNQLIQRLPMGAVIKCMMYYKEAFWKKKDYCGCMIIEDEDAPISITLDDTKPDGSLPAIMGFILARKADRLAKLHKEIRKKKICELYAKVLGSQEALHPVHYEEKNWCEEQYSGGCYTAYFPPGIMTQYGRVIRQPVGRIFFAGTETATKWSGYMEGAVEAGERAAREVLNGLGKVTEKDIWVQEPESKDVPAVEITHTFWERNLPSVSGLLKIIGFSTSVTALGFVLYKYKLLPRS
The format is functional.

Experiment [6] addresses Sodium-dependent noradrenaline transporter (Homo sapiens, UniProt P23975).
Experiment [7] has as its target T5, Type-1 angiotensin II receptor (Homo sapiens, UniProt P30556).
T5 sequence (P30556 whole entry): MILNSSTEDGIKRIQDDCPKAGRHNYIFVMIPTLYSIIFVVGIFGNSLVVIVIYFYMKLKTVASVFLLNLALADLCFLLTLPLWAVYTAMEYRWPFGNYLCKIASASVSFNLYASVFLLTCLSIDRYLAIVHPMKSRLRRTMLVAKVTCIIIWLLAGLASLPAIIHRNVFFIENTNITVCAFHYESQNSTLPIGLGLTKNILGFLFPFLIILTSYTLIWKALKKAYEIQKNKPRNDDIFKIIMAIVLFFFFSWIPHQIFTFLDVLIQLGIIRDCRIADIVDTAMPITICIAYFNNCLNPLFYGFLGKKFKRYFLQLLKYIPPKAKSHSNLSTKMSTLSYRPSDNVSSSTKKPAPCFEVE

For experiment [8], the target named is D(3) dopamine receptor (Homo sapiens, UniProt P35462).
Sequence of D(3) dopamine receptor (P35462 whole entry): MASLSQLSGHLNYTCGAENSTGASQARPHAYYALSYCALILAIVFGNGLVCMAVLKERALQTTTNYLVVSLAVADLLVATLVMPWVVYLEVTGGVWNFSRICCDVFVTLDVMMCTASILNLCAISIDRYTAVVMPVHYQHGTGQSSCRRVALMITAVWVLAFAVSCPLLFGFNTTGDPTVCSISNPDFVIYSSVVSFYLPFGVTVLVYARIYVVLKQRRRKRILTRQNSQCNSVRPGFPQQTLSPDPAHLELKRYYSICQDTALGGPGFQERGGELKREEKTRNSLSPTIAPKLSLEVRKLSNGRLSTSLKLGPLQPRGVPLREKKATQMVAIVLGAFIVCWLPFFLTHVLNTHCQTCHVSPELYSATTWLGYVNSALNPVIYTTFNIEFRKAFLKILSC
The target of experiment [9] is T6, Alpha-2C adrenergic receptor (Homo sapiens, UniProt P18825).
T6 sequence (P18825 whole entry): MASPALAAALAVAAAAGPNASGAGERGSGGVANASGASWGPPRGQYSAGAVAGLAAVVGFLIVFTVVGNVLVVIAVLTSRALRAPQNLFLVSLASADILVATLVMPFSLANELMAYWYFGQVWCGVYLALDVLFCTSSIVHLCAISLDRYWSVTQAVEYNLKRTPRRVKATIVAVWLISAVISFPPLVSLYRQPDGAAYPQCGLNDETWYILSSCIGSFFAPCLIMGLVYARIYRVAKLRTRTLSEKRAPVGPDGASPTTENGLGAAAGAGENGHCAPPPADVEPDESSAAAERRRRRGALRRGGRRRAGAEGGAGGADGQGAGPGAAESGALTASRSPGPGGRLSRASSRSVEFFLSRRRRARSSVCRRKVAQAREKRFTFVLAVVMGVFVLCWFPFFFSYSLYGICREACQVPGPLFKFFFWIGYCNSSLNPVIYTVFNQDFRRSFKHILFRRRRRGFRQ
The format is functional.

Experiment [10] concerns the target Melanocortin receptor 4 (Homo sapiens, UniProt P32245).
Also: assay procedure not described here.

Sequence of Sodium-dependent noradrenaline transporter (P23975 whole entry): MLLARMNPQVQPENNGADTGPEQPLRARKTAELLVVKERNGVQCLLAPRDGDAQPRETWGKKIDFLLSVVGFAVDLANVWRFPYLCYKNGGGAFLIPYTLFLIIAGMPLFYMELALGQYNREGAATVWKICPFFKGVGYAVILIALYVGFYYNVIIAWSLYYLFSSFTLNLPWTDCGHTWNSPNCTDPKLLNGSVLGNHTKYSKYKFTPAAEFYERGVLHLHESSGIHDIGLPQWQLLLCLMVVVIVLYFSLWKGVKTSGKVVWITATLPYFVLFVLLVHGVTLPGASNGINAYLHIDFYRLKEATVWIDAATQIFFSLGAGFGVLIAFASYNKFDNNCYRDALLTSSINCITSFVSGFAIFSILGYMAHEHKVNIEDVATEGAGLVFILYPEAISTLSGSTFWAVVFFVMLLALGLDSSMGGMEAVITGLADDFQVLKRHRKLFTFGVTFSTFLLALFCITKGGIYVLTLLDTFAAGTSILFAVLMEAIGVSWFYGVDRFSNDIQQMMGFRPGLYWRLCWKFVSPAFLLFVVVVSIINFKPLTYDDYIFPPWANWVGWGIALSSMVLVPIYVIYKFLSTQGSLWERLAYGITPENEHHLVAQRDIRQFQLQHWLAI
Sequence of Melanocortin receptor 4 (P32245 whole entry): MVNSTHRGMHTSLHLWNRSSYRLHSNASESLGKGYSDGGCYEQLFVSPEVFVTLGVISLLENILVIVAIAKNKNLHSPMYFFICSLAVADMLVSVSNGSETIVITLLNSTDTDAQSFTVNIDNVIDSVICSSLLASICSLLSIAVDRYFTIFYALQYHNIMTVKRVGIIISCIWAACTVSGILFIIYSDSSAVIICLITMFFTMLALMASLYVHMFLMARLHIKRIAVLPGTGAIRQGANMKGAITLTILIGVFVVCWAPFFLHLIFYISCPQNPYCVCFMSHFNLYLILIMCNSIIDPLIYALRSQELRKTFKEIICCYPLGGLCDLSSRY

For `COc1ccc(CC2c3cc(OC)c(OC)cc3CC[N+]2(C)CCC(=O)OCCCCCOC(=O)CC[N+]2(C)CCc3cc(OC)c(OC)cc3C2Cc2ccc(OC)c(OC)c2)cc1OC` (stereo not given), the AC50 (commonly the concentration at which the activity in the assay is half-maximal) was greater than 30 µM in experiment [1]; greater than 30 µM in [2]; 6.3 µM in experiment [3]; 22 µM in experiment [4]; greater than 30 µM in [5]; 11.3 µM in experiment [6]. The AC50 is greater than 30 µM in experiment [7], greater than 30 µM in [8], 2.7 µM in [9] and greater than 30 µM in experiment [10].

Take `CC(N)C12CC3CC(CC(C3)C1)C2` (stereo not given) [RIMANTADINE]: the AC50 in experiment [1] was greater than 10 µM; in experiment [2] it was greater than 10 µM; in experiment [3], greater than 30 µM; in experiment [4] it was greater than 10 µM; in experiment [5] it was greater than 10 µM; in experiment [6], greater than 10 µM. Further, the AC50 in experiment [7] was greater than 10 µM; in [8], greater than 30 µM; in experiment [9], greater than 10 µM; in [10] it was greater than 10 µM.

As for `O=C1CCc2cc(OCCCCc3nnnn3C3CCCCC3)ccc2N1` [CILOSTAZOL], the AC50 in experiment [1] was greater than 30 µM; in experiment [2], greater than 30 µM; in experiment [3], greater than 30 µM; in experiment [4], 3.06 µM; in [5], greater than 30 µM; in experiment [6], greater than 30 µM. The AC50 in experiment [7], in [8], in experiment [9] and in [10] was greater than 30 µM in each case.

Consider `COc1ccccc1Oc1c(NS(=O)(=O)c2ccc(C(C)(C)C)cc2)nc(-c2ncccn2)nc1OCCO` [BOSENTAN], for which the AC50 is greater than 30 µM in experiment [1]; greater than 30 µM in experiment [2]; greater than 30 µM in experiment [3]; greater than 10 µM in experiment [4]; greater than 10 µM in experiment [5]; greater than 30 µM in experiment [6]. The AC50 is greater than 30 µM in experiment [7], greater than 30 µM in [8], greater than 10 µM in experiment [9] and greater than 30 µM in [10].

With `O=C1CN(/N=C/c2ccc(-c3ccc([N+](=O)[O-])cc3)o2)C(O)=N1` [DANTROLENE], the AC50 in experiment [1] is greater than 10 µM; in experiment [2], greater than 10 µM; in [3], greater than 30 µM; in experiment [4] it was greater than 10 µM; in experiment [5] it was greater than 10 µM; in [6], greater than 10 µM. Further, the AC50 in [7] was greater than 10 µM; in [8], greater than 30 µM; in experiment [9] it was greater than 10 µM; in experiment [10], greater than 10 µM.

For `CC(C(=O)O)c1ccc2c(c1)[nH]c1ccc(Cl)cc12` (stereo not given) [CARPROFEN], the AC50 in experiment [1] is greater than 30 µM; in experiment [2], greater than 10 µM; in [3], greater than 30 µM; in experiment [4], greater than 10 µM; in experiment [5] it was greater than 10 µM; in experiment [6], greater than 30 µM. Besides, the AC50 was greater than 30 µM in experiment [7], greater than 30 µM in [8], greater than 10 µM in experiment [9] and greater than 10 µM in experiment [10].

In the case of `C[C@H]1c2cccc(O)c2C(=O)C2=C(O)[C@]3(O)C(=O)C(C(N)=O)=C(O)[C@@H](N(C)C)[C@@H]3[C@@H](O)[C@@H]21` [DOXYCYCLINE], the AC50 was greater than 30 µM in experiment [1]; greater than 30 µM in experiment [2]; greater than 30 µM in [3]; greater than 10 µM in experiment [4]; greater than 10 µM in experiment [5]; greater than 10 µM in [6]. Besides, the AC50 in [7] was greater than 30 µM; in experiment [8] it was greater than 10 µM; in [9] it was greater than 10 µM; in experiment [10] it was greater than 30 µM.

On to `CC(C)N(CCC(C(N)=O)(c1ccccc1)c1ccccn1)C(C)C` (stereo not given) [DISOPYRAMIDE], for which the AC50 in experiment [1] was greater than 30 µM; in experiment [2], greater than 30 µM; in experiment [3], greater than 30 µM; in experiment [4], 6.73 µM; in [5], greater than 10 µM; in experiment [6], greater than 30 µM. Besides, the AC50 in [7] was greater than 30 µM; in [8], greater than 30 µM; in experiment [9] it was greater than 10 µM; in experiment [10] it was greater than 30 µM.

As for `CC(C)Cc1ccc(C(C)C(=O)O)cc1` (stereo not given) [IBUPROFEN], the AC50 was greater than 30 µM in experiment [1]; greater than 30 µM in experiment [2]; greater than 30 µM in [3]; greater than 10 µM in experiment [4]; greater than 10 µM in experiment [5]; greater than 30 µM in [6]. Further, the AC50 in experiment [7] is greater than 30 µM; in experiment [8], greater than 30 µM; in experiment [9], greater than 10 µM; in experiment [10], greater than 30 µM.

For the molecule `COc1ccccc1OCCNCC(O)COc1cccc2[nH]c3ccccc3c12` (stereo not given) [CARVEDILOL], the AC50 is greater than 30 µM in [1]; 25.3 µM in [2]; 1.1 µM in [3]; 18.9 µM in [4]; greater than 10 µM in experiment [5]; 3.99 µM in experiment [6]. In addition, the AC50 was 0.255 µM in [7], 0.47 µM in experiment [8], 0.061 µM in [9] and 29.9 µM in experiment [10].

As to `O=C1C(CC[S+]([O-])c2ccccc2)C(=O)N(c2ccccc2)N1c1ccccc1` (stereo not given) [SULFINPYRAZONE], the AC50 was greater than 10 µM in experiment [1]; greater than 10 µM in [2]; greater than 30 µM in experiment [3]; greater than 10 µM in experiment [4]; greater than 10 µM in [5]; greater than 10 µM in [6]. The AC50 in experiment [7] was greater than 10 µM; in experiment [8] it was greater than 30 µM; in experiment [9] it was greater than 10 µM; in experiment [10], greater than 10 µM.

On to `CCCN(CCC)C(=O)Cc1c(-c2ccc(Cl)cc2)nc2ccc(Cl)cn12` [ALPIDEM], for which the AC50 in experiment [1] is greater than 30 µM; in [2], greater than 30 µM; in experiment [3] it was greater than 30 µM; in experiment [4] it was 13 µM; in [5], greater than 30 µM; in experiment [6] it was greater than 30 µM. In addition, the AC50 in experiment [7], in experiment [8], in [9] and in experiment [10] was greater than 30 µM each time.
